Test results taken from patent publication US7709024B2, “Sustained-release formulation and uses thereof” (Solvay Pharmaceuticals B.V., priority 2005, dated 2010).

Columns and labels:
[1] = in vivo; cited from earlier work
[2] = Comparative equilibrium solubility of salts of compound 1; details: pH listed with the equilibrium solubility
rodents = details: cited from earlier work
D2 receptors = D2 receptors (Homo sapiens, UniProt P14416); details: therapeutic models, WO 01/14330; cited from earlier work
5HT reuptake = details: therapeutic models, WO 01/14330; cited from earlier work

D2 receptors, sequence (P14416 whole entry): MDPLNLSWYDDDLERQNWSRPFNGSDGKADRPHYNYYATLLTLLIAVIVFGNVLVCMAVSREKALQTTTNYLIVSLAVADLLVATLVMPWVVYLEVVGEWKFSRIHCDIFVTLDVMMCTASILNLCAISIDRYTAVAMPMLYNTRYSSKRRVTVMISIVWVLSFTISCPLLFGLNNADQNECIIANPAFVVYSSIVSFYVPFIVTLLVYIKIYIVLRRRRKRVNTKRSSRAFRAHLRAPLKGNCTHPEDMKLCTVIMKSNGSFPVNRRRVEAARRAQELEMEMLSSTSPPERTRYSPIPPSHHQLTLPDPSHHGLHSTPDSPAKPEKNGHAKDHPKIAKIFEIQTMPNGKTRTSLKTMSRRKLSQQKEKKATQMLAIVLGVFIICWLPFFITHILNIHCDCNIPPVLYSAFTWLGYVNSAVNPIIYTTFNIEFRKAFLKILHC

In the case of `CC1Oc2c(cccc2N2CCN(CCCc3c[nH]c4ccc(F)cc34)CC2)NC1=O` (stereo not drawn) [compound 1, 8-{4-[3-(5-fluoro-1H-indol-3-yl)-propyl]-piperazin-1-yl}-2-methyl-4H-benzo[1,4]oxazin-3-one], the “activity in therapeutic models sensitive to clinically relevant antipsychotics, antidepressants, anxiolytics, and Parkinson's disease” value [1] is listed as “active”, the pH ([2]; listed as freebase (1)) is listed as 4.72 and the “propensity to induce catalepsy” value (rodents) is listed as “low propensity to induce catalepsy”. The “antagonistic activity at D2 receptors” value (D2 receptors) was “antagonistic activity at D2 receptors” and the “inhibitory activity against 5HT reuptake” value (5HT reuptake) was “inhibitory activity against 5HT reuptake”.

`CC1Oc2c(cccc2N2CCN(CCCc3c[nH]c4ccc(F)cc34)CC2)NC1=O` (stereo not drawn) [compound 2] showed a pH ([2]; listed as glucuronate (2)) of 4.25.
